The source of these data is patent publication US20240109896A1, “FGFR KINASE INHIBITOR AND USE THEREOF” (YA THERAPEUTICS INC, priority 2021, published 2024).

Like-named read-outs stand apart in the source and are kept apart here.

One assay addresses FGFR2 (Homo sapiens, UniProt P21802). In words: In vitro activity inhibition test for kinase FGFR2. Type of assay: biochemical. The settings on record: kinase assay, 25° C.; read-out: Inhibition of separase IC50 (nM) FGFR2.
The next assay deals with FGFR1 (Homo sapiens, UniProt P11362). In words: In vitro activity inhibition test for kinase FGFR1.
The next assay deals with FGFR3 (Homo sapiens, UniProt P22607). In words: In vitro activity inhibition test for kinase FGFR3.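 Note: FGFR3 kinase activity read by Caliper mobility shift assay, compounds run as 10-point 4-fold dilution series, final DMSO 0.5%.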
For a further assay, the target named is FGFR4 (Homo sapiens, UniProt P22455). In words: In vitro activity inhibition test for kinase FGFR4.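 Note: caliper mobility shift assay of FGFR4 kinase activity, compounds tested as 10-point 4-fold dilution series with 0.5% DMSO final.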
Chain of FGFR4 (P22455 22-802): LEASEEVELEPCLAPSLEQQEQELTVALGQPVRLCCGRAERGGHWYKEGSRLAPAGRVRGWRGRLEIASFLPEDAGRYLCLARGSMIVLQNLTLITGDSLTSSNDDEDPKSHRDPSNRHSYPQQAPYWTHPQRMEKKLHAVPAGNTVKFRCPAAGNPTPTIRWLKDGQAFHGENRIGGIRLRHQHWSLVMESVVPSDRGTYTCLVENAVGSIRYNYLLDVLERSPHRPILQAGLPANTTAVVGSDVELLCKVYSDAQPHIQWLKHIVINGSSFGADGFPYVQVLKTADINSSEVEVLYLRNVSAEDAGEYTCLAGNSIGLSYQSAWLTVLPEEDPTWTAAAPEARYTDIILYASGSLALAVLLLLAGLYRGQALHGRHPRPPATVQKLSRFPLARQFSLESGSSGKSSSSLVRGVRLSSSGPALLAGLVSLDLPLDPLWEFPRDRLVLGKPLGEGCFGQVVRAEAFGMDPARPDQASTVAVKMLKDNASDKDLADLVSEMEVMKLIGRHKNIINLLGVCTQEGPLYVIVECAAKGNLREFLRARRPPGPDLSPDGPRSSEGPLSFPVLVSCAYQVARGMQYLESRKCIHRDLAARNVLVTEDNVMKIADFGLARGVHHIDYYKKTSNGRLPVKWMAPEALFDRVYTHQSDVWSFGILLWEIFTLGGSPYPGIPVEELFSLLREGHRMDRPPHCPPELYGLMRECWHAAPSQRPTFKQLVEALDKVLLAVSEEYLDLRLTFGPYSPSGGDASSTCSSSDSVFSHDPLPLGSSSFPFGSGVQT

Chain of FGFR2 (P21802 22-821): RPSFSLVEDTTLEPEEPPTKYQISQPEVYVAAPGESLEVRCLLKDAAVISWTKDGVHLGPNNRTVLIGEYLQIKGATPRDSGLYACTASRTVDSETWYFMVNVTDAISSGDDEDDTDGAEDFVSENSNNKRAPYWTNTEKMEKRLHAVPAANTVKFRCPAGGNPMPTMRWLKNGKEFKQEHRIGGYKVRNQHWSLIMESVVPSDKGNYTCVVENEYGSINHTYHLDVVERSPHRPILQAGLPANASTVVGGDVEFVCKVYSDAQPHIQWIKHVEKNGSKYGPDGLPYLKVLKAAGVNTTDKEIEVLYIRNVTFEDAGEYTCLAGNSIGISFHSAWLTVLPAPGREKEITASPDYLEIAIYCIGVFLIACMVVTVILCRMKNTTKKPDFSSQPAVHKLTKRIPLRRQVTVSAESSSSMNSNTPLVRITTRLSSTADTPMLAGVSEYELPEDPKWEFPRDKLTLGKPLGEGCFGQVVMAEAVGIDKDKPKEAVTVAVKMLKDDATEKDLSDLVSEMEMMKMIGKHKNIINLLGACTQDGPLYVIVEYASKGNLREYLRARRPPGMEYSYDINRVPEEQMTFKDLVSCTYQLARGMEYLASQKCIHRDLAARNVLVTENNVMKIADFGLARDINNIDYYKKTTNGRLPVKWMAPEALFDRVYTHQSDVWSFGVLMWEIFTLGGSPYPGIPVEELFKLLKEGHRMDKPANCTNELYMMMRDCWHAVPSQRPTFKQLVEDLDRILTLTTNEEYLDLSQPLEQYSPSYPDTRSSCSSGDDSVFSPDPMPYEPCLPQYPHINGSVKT
Chain of FGFR3 (P22607 23-806): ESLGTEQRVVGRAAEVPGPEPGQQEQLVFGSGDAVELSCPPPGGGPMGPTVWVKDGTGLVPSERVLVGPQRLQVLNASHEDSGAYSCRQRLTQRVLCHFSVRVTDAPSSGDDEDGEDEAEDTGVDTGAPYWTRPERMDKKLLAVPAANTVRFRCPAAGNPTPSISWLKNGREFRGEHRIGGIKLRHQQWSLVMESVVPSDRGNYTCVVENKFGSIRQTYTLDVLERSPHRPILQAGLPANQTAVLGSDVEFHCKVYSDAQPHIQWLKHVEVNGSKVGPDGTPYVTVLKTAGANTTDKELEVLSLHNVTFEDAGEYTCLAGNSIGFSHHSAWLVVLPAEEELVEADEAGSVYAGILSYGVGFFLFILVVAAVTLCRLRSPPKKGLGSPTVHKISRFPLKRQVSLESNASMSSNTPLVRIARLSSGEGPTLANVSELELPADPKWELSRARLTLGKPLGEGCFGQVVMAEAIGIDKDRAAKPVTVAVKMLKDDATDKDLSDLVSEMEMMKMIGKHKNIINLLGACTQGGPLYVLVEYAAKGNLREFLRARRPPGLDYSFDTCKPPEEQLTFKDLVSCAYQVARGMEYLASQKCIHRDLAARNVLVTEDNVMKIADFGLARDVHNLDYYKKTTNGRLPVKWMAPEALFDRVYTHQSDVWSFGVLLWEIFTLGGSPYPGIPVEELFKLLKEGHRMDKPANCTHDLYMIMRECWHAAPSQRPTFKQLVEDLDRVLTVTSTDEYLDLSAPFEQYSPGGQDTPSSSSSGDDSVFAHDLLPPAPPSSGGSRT
Chain of FGFR1 (P11362 22-822): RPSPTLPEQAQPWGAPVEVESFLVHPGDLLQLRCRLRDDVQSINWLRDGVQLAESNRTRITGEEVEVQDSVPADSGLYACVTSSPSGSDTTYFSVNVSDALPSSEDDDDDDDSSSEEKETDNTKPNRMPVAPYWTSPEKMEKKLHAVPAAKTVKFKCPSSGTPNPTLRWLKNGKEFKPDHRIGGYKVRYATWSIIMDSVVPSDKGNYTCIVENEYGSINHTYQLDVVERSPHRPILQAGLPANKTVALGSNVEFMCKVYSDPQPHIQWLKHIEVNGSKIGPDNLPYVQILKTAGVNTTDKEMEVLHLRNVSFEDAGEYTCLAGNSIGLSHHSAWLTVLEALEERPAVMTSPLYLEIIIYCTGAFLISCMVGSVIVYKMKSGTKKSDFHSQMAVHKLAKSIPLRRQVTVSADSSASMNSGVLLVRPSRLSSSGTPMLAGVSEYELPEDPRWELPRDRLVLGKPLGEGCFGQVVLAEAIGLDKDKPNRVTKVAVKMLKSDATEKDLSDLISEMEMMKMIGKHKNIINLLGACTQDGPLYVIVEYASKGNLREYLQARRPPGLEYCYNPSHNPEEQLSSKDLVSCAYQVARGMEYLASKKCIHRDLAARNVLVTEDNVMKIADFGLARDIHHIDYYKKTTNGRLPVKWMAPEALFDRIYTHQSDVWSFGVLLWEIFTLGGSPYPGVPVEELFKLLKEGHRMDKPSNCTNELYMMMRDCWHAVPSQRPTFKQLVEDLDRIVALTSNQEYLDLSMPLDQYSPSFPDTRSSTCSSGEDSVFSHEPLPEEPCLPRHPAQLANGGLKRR
Procedure for FGFR1: (§1) In Vitro Activity Inhibition Test for Kinases FGFR1, FGFR2, FGFR3 and FGFR4
(§2) The activity of FGFR1, FGFR2, FGFR3 and FGFR4 protein kinases was determined by Caliper mobility shift assay. Perform a 4-fold gradient dilution from a working concentration of 0.2 mM in DMSO, diluting 10 concentrations. Add 2 μL of compound to 78 μL of 1× compound buffer. There were 10 points each for the negative control and the positive control. Shake the board on the rocker for 20 min. […] The final concentration of DMSO was 0.5%.
Procedure for FGFR3: as §1, §2
Procedure for FGFR4: as §1, §2

On to `C=CC(=O)N1CC[C@H](Nc2nc(N)c(C(N)=O)c(C#Cc3cc(OC)cc(OC)c3)n2)C1` [Compound 6, (S)-2-((1-acryloylpyrrolidin-3-yl)amino)-4-amino-6-((3,5-dimethoxyphenyl)ethynyl)pyrimidine-5-carboxamide], for which the IC50 at FGFR2, on FGFR1, on FGFR3 and against FGFR4 was less than 10 nM in each case.
For the compound `C=CC(=O)N1CCC[C@H](Nc2nc(N)c(C(N)=O)c(C#Cc3cc(OC)cc(OC)c3)n2)C1` [Compound 11, (S)-2-((1-acryloylpiperidin-3-yl)amino)-4-amino-6-((3,5-dimethoxyphenyl)ethynyl)pyrimidine-5-carboxamide], the IC50 at FGFR2 fell in the range of 10 to 100 nM; on FGFR1, 10 to 100 nM; against FGFR3, 100 to 500 nM; against FGFR4, 10 to 100 nM.
As for `CC#CC(=O)N1CC[C@H](Nc2ncc(C(F)(F)F)c(C#Cc3cc(OC)cc(OC)c3)n2)C1` [Compound 14, (S)-1-(3-((4-((3,5-dimethoxyphenyl)ethynyl)-5-(trifluoromethyl)pyrimidin-2-yl)amino)pyrrolidin-1-yl)but-2-yn-1-one], the IC50 at FGFR2 lay in the range of 10 to 100 nM; against FGFR1 it was 10 to 100 nM; at FGFR3, 100 to 500 nM; against FGFR4 it was 10 to 100 nM.
For `CC#CC(=O)N1CCC[C@H](n2nc(C#Cc3cc(OC)cc(OC)c3)c3c(N)n[nH]c(=O)c32)C1` [Compound 25, (S)-4-amino-1-(1-(but-2-ynoyl)piperidin-3-yl)-3-((3,5-dimethoxyphenyl)ethynyl)-1,6-dihydro-7H-pyrazolo[3,4-d]pyridazin-7-one], the 50% inhibitory concentration (IC50) at FGFR2, on FGFR1, on FGFR3 and at FGFR4 was less than 10 nM each time.
Consider `C=CC(=O)N1CCC2(CC(Nc3nc(N)c(C(N)=O)c(C#Cc4cc(OC)cc(OC)c4)n3)C2)C1` (centres unmarked) [Compound 8, 2-((6-acryloyl-6-azaspiro[3.4]octan-2-yl)amino)-4-amino-6-((3,5-dimethoxyphenyl)ethynyl)pyrimidine-5-carboxamide], for which the half-inhibitory concentration (IC50) on FGFR2 was 10 to 100 nM; on FGFR1 it was 100 to 500 nM; at FGFR3, 10 to 100 nM; on FGFR4 it was 100 to 500 nM.
As for `C=CC(=O)N1CCC(Nc2nc(N)c(C(N)=O)c(C#Cc3cc(OC)cc(OC)c3)n2)CC1` [Compound 10, 2-((1-acryloylpiperidin-4-yl)amino)-4-amino-6-((3,5-dimethoxyphenyl)ethynyl)pyrimidine-5-carboxamide], the 50% inhibitory concentration (IC50) on FGFR2 lay within 10 to 100 nM; against FGFR1, 10 to 100 nM; against FGFR3, 100 to 500 nM; on FGFR4 it was 10 to 100 nM.
On to `CC#CC(=O)N1CCC[C@H](n2cc(C#Cc3cc(OC)cc(OC)c3)c3c(N)n[nH]c(=O)c32)C1` [Compound 21, (S)-4-amino-1-(1-(but-2-ynoyl)piperidin-3-yl)-3-((3,5-dimethoxyphenyl)ethynyl)-1,6-dihydro-7H-pyrrolo[2,3-d]pyridazin-7-one], for which the half-maximal inhibitory concentration (IC50) on FGFR2, on FGFR1, against FGFR3 and against FGFR4 was less than 10 nM throughout.
For the compound `C=CC(=O)N[C@H]1CCN(c2nc(N)c(C(N)=O)c(C#Cc3cc(OC)cc(OC)c3)n2)C1` [Compound 17, (S)-2-(3-acrylamidopyrrolidin-1-yl)-4-amino-6-((3,5-dimethoxyphenyl)ethynyl)pyrimidine-5-carboxamide], the IC50 at FGFR2, against FGFR1, against FGFR3 and at FGFR4 was less than 10 nM in each case.
For `C=CC(=O)N1CC[C@H](Nc2ncc(C#N)c(C#Cc3cc(OC)cc(OC)c3)n2)C1` [Compound 5, (S)-2-((1-acryloylpyrrolidin-3-yl)amino)-4-((3,5-dimethoxyphenyl)ethynyl)pyrimidine-5-carbonitrile], the IC50 on FGFR2 was in the range of 10 to 100 nM; against FGFR1, 10 to 100 nM; against FGFR3 it was 100 to 500 nM; against FGFR4, 10 to 100 nM.
Regarding `C=CC(=O)N1CC[C@@H](Nc2nc(N)c(C(N)=O)c(C#Cc3cc(OC)cc(OC)c3)n2)C1` [Compound 15, (R)-2-((1-acryloylpyrrolidin-3-yl)amino)-4-amino-6-((3,5-dimethoxyphenyl)ethynyl)pyrimidine-5-carboxamide], the IC50 at FGFR2, against FGFR1, against FGFR3 and at FGFR4 was less than 10 nM in each case.
Consider `CC#CC(=O)N1CC[C@H](n2cc(-c3ccc4ccccc4c3)c3c(N)n[nH]c(=O)c32)C1` [Compound 39, (S)-4-amino-1-(1-(but-2-ynoyl)pyrrolidin-3-yl)-3-(naphthalen-2-yl)-1,6-dihydro-7H-pyrrolo[2,3-d]pyridazin-7-one], for which the half-inhibitory concentration (IC50) on FGFR2, at FGFR1, against FGFR3 and at FGFR4 was less than 10 nM in each case.
For `C=CC(=O)N1CC[C@H](Nc2ncc(Br)c(C#Cc3cc(OC)cc(OC)c3)n2)C1` [Compound 2, (S)-1-(3-((5-bromo-4-((3,5-dimethoxyphenyl)ethynyl)pyrimidin-2-yl)amino)pyrrolidin-1-yl)prop-2-en-1-one], the IC50 at FGFR2 fell in the range of 10 to 100 nM; against FGFR1, 10 to 100 nM; on FGFR3, 100 to 500 nM; on FGFR4, 100 to 500 nM.
Regarding “(S)-4-amino-1-(1-(but-2-ynoyl)pyrrolidin-3-yl)-3-((2,6-difluoro-3,5-dimethoxyphenyl)ethynyl)-1,6-dihydro-7H-pyrazolo[3,4-d]pyridazin-7-one [Compound 29]”, the IC50 on FGFR2 was less than 10 nM; on FGFR1 (read-out: Inhibition of FGFR1 IC50 (nM) FGFR1, kinase assay, 25° C.), less than 10 nM; at FGFR3 (read-out: Inhibition IC50 (nM) FGFR3, kinase assay, 25° C.), less than 10 nM; at FGFR4 (read-out: Inhibition of kinase IC50 (nM) FGFR4, kinase assay, 25° C.), less than 10 nM.
Turning to `CC#CC(=O)N1CC[C@H](n2cc(C#Cc3cc(OC)cc(OC)c3)c3c(N)n[nH]c(=O)c32)C1` [Compound 23, (S)-4-amino-1-(1-(but-2-ynoyl)pyrrolidin-3-yl)-3-((3,5-dimethoxyphenyl)ethynyl)-1,6-dihydro-7H-pyrrolo[2,3-d]pyridazin-7-one], the IC50 at FGFR2, at FGFR1, against FGFR3 and against FGFR4 was less than 10 nM each time.
Turning to `C=CC(=O)N1CC[C@H](n2cc(-c3ccc4ccccc4c3)c3c(N)n[nH]c(=O)c32)C1` [Compound 43, (S)-1-(1-acryloylpyrrolidin-3-yl)-4-amino-3-(naphthalen-2-yl)-1,6-dihydro-7H-pyrrolo[2,3-d]pyridazin-7-one], the half-maximal inhibitory concentration (IC50) on FGFR2, on FGFR1, on FGFR3 and at FGFR4 was less than 10 nM each time.
As for `CC#CC(=O)N1CC[C@H](Nc2nc(N)c(C(N)=O)c(C#Cc3cc(OC)cc(OC)c3)n2)C1` [Compound 12, (S)-4-amino-2-((1-(but-2-ynoyl)pyrrolidin-3-yl)amino)-6-((3,5-dimethoxyphenyl)ethynyl)pyrimidine-5-carboxamide], the IC50 at FGFR2, against FGFR1, against FGFR3 and against FGFR4 was less than 10 nM each time.
For the compound `CC#CC(=O)N1CC[C@H](Nc2ncc(Br)c(C#Cc3cc(OC)cc(OC)c3)n2)C1` [Compound 13, (S)-1-(3-((5-bromo-4-((3,5-dimethoxyphenyl)ethynyl)pyrimidin-2-yl)amino)pyrrolidin-1-yl)but-2-yn-1-one], the half-maximal inhibitory concentration (IC50) at FGFR2 is 10 to 100 nM; against FGFR1, 10 to 100 nM; against FGFR3, 10 to 100 nM; on FGFR4, 100 to 500 nM.
